Laboratory results published in patent publication US20240252432A1, “COMPOSITIONS, METHODS AND SYSTEMS FOR AEROSOL DRUG DELIVERY” (ASTRAZENECA PHARMACEUTICALS LP, priority 2021, published 2024).
Like-named read-outs stand apart in the source and are kept apart here.

What was measured:
[1] = Particle size distribution by laser diffraction; assay type: physicochemical
Description: When referred to herein, the term “optical diameter” indicates the size of a particle as measured by the Fraunhofer diffraction mode using a laser diffraction particle size analyzer equipped with a dry powder dispenser (e.g., Sympatec GmbH, Clasthal-Zellerfeld, Germany).
Suspending particles were manufactured by spray drying an emulsion of PFOB (perfluorooctyl bromide) and water stabilized by DSPC (1,2-Distearoyl-sn-Glycero-3-Phosphocholine). […] The particle size distribution of the suspending particles was determined by laser diffraction.
Active agent particles formed of budesonide, 16,17-(butylidenebis(oxy))-11,21-dihydroxy-(11-β,16-α)-pregna-1,4-diene-3,20-dione, were formed by micronizing budesonide using a jet mill. The particle size distribution of the budesonide (BD) was determined by laser diffraction.

[2] = Aerodynamic particle size distribution by NGI of BFF formulations (Example 4); assay type: physicochemical; conditions: dual co-suspension of budesonide and formoterol in HFO-1234ze(E); stored valve down, protected, 25° C./60% RH
[3] = cited from earlier work
[4] = Aerodynamic particle size distribution by NGI of BDA formulations (Example 5); assay type: physicochemical; conditions: dual co-suspension of budesonide and albuterol in HFO-1234ze(E); stored valve down, protected, 25° C./60% RH

Row | Compound | optical diameter below which 50% by volume of the particles lie [1] | optical diameter below which 90% by volume of the particles lie [1] | Water Solubility in Propellant ([3]; @25) | further results
1 | COc1ccc(CC(C)NCC(O)c2ccc(O)c(NC=O)c2)cc1.O=C(O)/C=C/C(=O)O (racemic) [formoterol fumarate, (±)-2-hydroxy-5-[(1RS)-1-hydroxy-2-[[(1RS)-2-(4-methoxyphenyl)-1-methylethyl]-amino]ethyl]formanilide fumarate] | smaller than 1.6 μm | smaller than 3.9 μm |  | 
2 | CCCCCCCCCCCCCCCCCC(=O)OC[C@H](COP(=O)([O-])OCC[N+](C)(C)C)OC(=O)CCCCCCCCCCCCCCCCC [DSPC, 1,2-Distearoyl-sn-glycero-3-phosphocholine] |  |  |  | stability of aPSD by NGI [2]: stable for twelve months
3 | FCC(F)(F)F [HFA-134a, 1,1,1,2-tetrafluoroethane] |  |  | 1100@25 ppm | 
4 | FC(C(F)(F)F)C(F)(F)F [HFA-227ea, 1,1,1,2,3,3,3-Heptafluoropropane] |  |  | 610@25 ppm | 
5 | CC(F)F [HFC-152a, 1,1-Difluoroethane] |  |  | 2100@25 ppm | 
6 | C=C(F)C(F)(F)F [HFO-1234yf, 2,3,3,3-Tetrafluoropropene] |  |  |  | Water Solubility in Propellant ([3]; @24): 200@24 ppm
7 | FC=CC(F)(F)F [HFO-1234ze, 1,3,3,3-tetrafluoropropene] |  |  |  | Water Solubility in Propellant ([3]; @20): 225@20 ppm
8 | CCCC1O[C@@H]2C[C@H]3[C@@H]4CCC5=CC(=O)C=C[C@]5(C)[C@H]4[C@@H](O)C[C@]3(C)[C@]2(C(=O)CO)O1 (stereo partly drawn) [budesonide, 16,17-(butylidenebis(oxy))-11,21-dihydroxy-(11-β,16-α)-pregna-1,4-diene-3,20-dione] |  |  |  | stability of aPSD by NGI [2]: stable for twelve months; stability of aPSD by NGI [4]: stable for twelve months
9 | C[N+]1(C)CCC(OC(=O)C(O)(c2ccccc2)C2CCCC2)C1.[Br-] (centres unmarked) [glycopyrrolate, Pyrrolidinium, 3-((cyclopentylhydroxyphenylacetyl)oxy)-1,1-dimethyl-, bromide] | smaller than 2.1 μm | smaller than 5 μm |  | 
10 | albuterol sulfate | smaller than 1.5 μm | smaller than 3.3 μm |  | 
